These are literature values, as cited in patent US6576673B2, “Method of deterring woodpeckers” (priority 2001, dated 2003).

This series has as its system golden fronted adult woodpeckers. The settings on record: painted or applied to a surface of a utility pole; smaller golden fronted adult woodpeckers.

On to `CC1=CC(=O)CC(C)(C)C1` [Isophorone, 3,5,5-trimethyl-2-cyclohexen-one-1], for which the repelling woodpeckers result was “effective in repelling woodpeckers”.
